Laboratory results as given in US20100168103A1, “DIARYL PIPERIDINE COMPOUNDS AS CALCIUM CHANNEL BLOCKERS” (NEUROMED PHARMACEUTICALS LTD., priority 2006, published 2010).
Like-named read-outs stand apart in the source and are kept apart here.

Target: T1, rat brain N-type calcium channel subunits (α1B+α2δ+β1b cDNA subunits) (Rattus norvegicus, UniProt Q02294)
T1 construct: expressed in transfected cells; host or cells: HEK 293
Assay: N-type calcium channel block, whole cell patch clamp in transfected HEK 293 cells
Type: cell-based
Conditions: holding potential −80 mV to +10 mV
Experimental: N-type calcium channel blocking activity was assayed in human embryonic kidney cells, HEK 293, stably transfected with the rat brain N-type calcium channel subunits (α1B+α2δ+β1b cDNA subunits). Alternatively, N-type calcium channels (α1B+α2δ+β1b cDNA subunits), L-type channels (α1C+α2δ+β1b cDNA subunits) and P/Q-type channels (α1A+α2δ+β1b cDNA subunits) were transiently expressed in HEK 293 cells. Briefly, cells were cultured in Dulbecco's modified eagle medium (DMEM) supplemented with 10% fetal bovine serum, 200 U/ml penicillin and 0.2 mg/ml streptomycin at 37° C. with 5% CO2. At 85% confluency cells were split with 0.25% trypsin/1 mM EDTA and plated at 10% confluency on glass coverslips. At 12 hours the medium was replaced and the cells transiently transfected using a standard calcium phosphate protocol and the appropriate calcium channel cDNA's. Fresh DMEM was supplied and the cells transferred to 28° C./5% CO2. Cells were incubated for 1 to 2 days prior to whole cell recording.
Whole cell patch clamp experiments were performed using an Axopatch 200B amplifier (Axon Instruments, Burlingame, Calif.) linked to a personal computer equipped with pCLAMP software. The external and internal recording solutions contained, respectively, 5 mM BaCl2, 10 mM MgCl2, 10 mM HEPES, 40 mM TEACl, 10 mM glucose, 87.5 mM CsCl (pH 7.2) and 108 mM CsMS, 4 mM MgCl2, 9 mM EGTA, 9 mM HEPES (pH 7.2). Currents were typically elicited from a holding potential of −80 mV to +10 mV using Clampex software (Axon Instruments). Typically, currents were first elicited with low frequency stimulation (0.067 Hz) and allowed to stabilize prior to application of the compounds. The compounds were then applied during the low frequency pulse trains for two to three minutes to assess tonic block, and subsequently the pulse frequency was increased to 0.2 Hz to assess frequency dependent block. Data were analyzed using Clampfit (Axon Instruments) and SigmaPlot 4.0 (Jandel Scientific).

[1] = low frequency stimulation 0.067 Hz (tonic block), 5 mM BaCl2, read-out: IC50 @ 0.067 Hz
[2] = pulse frequency 0.2 Hz (frequency dependent block), 5 mM BaCl2, read-out: IC50 @ 0.2 Hz

T1 sequence (Q02294 whole entry): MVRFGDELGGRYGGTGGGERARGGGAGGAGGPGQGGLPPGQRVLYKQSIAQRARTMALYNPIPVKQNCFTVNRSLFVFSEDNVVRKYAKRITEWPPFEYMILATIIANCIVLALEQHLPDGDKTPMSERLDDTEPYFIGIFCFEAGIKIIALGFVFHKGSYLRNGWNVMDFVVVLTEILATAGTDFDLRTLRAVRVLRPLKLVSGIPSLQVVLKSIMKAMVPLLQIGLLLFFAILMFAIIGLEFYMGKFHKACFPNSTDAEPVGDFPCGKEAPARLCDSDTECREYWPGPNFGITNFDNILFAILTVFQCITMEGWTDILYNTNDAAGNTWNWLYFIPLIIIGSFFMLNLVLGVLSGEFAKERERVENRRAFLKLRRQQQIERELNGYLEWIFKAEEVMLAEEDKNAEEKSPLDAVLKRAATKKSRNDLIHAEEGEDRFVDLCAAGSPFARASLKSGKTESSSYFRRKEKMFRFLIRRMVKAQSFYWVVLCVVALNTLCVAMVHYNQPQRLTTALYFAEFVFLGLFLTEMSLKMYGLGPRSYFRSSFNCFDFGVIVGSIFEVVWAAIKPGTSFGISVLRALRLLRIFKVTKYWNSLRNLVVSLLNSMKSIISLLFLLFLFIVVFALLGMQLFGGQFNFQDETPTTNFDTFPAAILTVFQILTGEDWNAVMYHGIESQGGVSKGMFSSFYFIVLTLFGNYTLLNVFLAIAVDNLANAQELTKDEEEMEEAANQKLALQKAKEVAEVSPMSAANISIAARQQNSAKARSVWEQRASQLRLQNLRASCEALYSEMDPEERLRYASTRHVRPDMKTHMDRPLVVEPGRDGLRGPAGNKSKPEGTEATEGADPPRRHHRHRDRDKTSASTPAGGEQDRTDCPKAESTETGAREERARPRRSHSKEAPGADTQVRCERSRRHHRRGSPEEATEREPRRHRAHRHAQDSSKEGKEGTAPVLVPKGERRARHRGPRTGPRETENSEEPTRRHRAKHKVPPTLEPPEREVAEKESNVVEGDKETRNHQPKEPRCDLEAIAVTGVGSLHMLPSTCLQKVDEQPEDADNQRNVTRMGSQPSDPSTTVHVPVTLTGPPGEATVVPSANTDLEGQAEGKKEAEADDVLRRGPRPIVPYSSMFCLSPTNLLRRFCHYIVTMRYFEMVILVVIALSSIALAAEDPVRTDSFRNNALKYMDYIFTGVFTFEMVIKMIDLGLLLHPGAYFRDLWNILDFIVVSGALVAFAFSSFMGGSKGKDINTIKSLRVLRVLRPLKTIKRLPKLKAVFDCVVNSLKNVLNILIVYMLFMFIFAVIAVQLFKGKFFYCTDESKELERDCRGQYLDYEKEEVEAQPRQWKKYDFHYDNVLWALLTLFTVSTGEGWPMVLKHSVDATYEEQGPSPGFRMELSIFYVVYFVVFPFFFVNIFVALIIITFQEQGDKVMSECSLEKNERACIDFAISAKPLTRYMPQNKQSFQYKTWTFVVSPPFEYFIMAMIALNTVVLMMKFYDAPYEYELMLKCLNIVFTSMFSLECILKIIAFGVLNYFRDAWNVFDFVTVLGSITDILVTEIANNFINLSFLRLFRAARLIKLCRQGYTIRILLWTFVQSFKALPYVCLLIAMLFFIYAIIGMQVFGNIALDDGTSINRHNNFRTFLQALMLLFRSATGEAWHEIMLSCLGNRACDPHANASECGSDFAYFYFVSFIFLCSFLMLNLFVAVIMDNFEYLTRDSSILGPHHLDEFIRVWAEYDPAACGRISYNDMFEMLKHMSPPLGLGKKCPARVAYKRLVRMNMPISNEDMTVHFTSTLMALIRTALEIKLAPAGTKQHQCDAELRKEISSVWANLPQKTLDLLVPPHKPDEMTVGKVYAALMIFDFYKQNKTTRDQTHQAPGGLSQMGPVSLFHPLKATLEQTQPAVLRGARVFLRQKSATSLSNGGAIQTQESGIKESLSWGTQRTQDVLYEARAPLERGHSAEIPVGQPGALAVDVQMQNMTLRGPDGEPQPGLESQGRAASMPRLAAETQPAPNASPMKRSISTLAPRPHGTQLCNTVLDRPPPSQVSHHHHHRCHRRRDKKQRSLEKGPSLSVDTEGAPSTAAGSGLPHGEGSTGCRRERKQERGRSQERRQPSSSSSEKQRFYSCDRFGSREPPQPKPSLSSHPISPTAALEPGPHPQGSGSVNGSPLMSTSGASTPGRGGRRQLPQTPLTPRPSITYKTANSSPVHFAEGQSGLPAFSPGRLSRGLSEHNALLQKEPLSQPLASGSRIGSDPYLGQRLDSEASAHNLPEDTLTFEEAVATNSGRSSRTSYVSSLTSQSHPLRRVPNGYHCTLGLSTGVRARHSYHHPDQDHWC
T1 sequence (P54290 25-944 partner limits assumed): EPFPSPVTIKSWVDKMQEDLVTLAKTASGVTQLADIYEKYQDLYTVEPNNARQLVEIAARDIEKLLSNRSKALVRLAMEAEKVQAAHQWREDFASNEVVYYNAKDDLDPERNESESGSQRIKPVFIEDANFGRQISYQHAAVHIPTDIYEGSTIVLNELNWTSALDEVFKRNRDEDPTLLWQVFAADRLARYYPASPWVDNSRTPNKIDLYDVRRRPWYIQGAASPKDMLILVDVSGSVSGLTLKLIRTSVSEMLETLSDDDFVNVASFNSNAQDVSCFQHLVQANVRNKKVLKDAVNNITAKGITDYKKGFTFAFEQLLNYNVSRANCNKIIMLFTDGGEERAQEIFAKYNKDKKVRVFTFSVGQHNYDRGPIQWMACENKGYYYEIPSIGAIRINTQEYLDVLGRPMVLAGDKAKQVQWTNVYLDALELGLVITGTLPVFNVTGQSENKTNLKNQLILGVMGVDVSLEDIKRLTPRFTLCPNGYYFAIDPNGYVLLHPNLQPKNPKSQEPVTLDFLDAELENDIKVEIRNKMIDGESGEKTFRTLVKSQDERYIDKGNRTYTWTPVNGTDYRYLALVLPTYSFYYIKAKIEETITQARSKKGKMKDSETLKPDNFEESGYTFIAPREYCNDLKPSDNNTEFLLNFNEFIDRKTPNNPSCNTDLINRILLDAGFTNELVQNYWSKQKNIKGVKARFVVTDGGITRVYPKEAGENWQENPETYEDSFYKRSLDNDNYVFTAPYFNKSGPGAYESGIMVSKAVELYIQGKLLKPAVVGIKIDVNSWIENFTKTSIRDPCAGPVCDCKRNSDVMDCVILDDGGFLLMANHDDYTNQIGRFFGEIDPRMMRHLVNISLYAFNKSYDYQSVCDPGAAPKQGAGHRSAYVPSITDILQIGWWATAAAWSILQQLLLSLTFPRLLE
T1 sequence (P54290 945-1091 partner limits assumed): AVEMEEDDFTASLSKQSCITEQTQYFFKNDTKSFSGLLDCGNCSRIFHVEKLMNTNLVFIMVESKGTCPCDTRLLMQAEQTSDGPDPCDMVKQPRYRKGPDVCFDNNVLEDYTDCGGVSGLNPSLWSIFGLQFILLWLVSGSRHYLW
T1 sequence (P54283 whole entry partner): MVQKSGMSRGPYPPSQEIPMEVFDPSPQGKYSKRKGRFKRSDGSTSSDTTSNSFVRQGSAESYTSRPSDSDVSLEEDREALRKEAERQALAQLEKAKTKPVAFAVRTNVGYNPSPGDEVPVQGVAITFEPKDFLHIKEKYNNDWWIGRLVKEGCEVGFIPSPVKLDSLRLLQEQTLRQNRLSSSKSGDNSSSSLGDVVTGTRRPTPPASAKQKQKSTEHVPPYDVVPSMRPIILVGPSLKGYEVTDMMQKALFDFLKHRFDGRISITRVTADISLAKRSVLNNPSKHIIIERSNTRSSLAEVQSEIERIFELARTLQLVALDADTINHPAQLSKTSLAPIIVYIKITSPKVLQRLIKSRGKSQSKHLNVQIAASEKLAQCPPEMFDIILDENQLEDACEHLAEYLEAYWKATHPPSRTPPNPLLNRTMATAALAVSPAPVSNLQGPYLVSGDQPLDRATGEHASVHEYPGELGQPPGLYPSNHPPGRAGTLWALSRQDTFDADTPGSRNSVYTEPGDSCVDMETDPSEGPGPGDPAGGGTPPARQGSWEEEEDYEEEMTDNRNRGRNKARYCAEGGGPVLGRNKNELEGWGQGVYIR

Row | Structure (SMILES) | IC50 [1] [nM] | IC50 [2] [nM]
1 | CN1CCN(CC2CCN(C(=O)COC(c3ccccc3)c3ccccc3)CC2)CC1 [Compound 4, 2-(benzhydryloxy)-1-(4-((4-methylpiperazin-1-yl)methyl)piperidin-1-yl)ethanone] | > 5650 | > 3830
2 | CN1CCN(CC2CCN(C(=O)C[S+]([O-])C(c3ccccc3)c3ccccc3)CC2)CC1 (centres unmarked) [Compound 6, 2-(benzhydrylsulfinyl)-1-(4-((4-methylpiperazin-1-yl)methyl)piperidin-1-yl)ethanone] | 8550 | 5200
3 | CN1CCN(C(=O)C2CCN(C(=O)CNC(c3ccccc3)c3ccccc3)CC2)CC1 [Compound 7, 2-(benzhydrylamino)-1-(4-(4-methylpiperazine-1-carbonyl)piperidin-1-yl)ethanone] | 4790 | 2380
4 | CN1CCN(C(=O)C2CCN(C(=O)COC(c3ccccc3)c3ccccc3)CC2)CC1 [Compound 8, 2-(benzhydryloxy)-1-(4-(4-methylpiperazine-1-carbonyl)piperidin-1-yl)ethanone] | 5110 | 1730
5 | CN1CCN(C(=O)C2CCN(C(=O)C[S+]([O-])C(c3ccccc3)c3ccccc3)CC2)CC1 (centres unmarked) [Compound 9, 2-(benzhydrylsulfinyl)-1-(4-(4-methylpiperazine-1-carbonyl)piperidin-1-yl)ethanone] | 2410 | 1800
6 | CN1CCN(CC2CCN(C(=O)CC(c3ccccc3)c3ccccc3)CC2)CC1 [Compound 10, 1-(4-((4-methylpiperazin-1-yl)methyl)piperidin-1-yl)-3,3-diphenylpropanon-1-one] | 2520 | 1720
7 | CN1CCN(CC2CCN(C(=O)NC(c3ccccc3)c3ccccc3)CC2)CC1 [Compound 11, N-benzhydryl-4-((4-methylpiperazine-1-yl)methyl)piperidine-1-carboxamide] | 28400 | 1500
8 | CN1CCN(C(=O)C2CCN(C(=O)CC(c3ccccc3)c3ccccc3)CC2)CC1 [Compound 12, 1-(4-(4-methylpiperazine-1-carbonyl)piperidin-1-yl)-3,3-diphenylpropan-1-one] | 1260 | 750
9 | CN1CCN(C(=O)C2CCN(C(=O)NC(c3ccccc3)c3ccccc3)CC2)CC1 [Compound 13, N-benzhydryl-4-(4-methylpiperazine-1-carbonyl)piperidine-1-carboxamide] | 4480 | 2210
10 | Cc1ccccc1C(CC(=O)N1CCC(CN2CCN(C)CC2)CC1)c1ccccc1C [Compound 14, 1-(4-((4-methylpiperazin-1-yl)methyl)piperidin-1-yl)-3,3-di-o-tolylpropan-1-one] | 1900 | 1060
11 | Cc1ccccc1C(CC(=O)N1CCC(CN2CC(C)NC(C)C2)CC1)c1ccccc1C (centres unmarked) [Compound 15, 1-(4-((3,5-dimethylpiperazin-1-yl)methyl)piperidin-1-yl)-3,3-di-o-tolylpropan-1-one] | 1850 | 1640
12 | Cc1ccccc1C(CC(=O)N1CCC(C(=O)N2CC(C)NC(C)C2)CC1)c1ccccc1C (centres unmarked) [Compound 16, 1-(4-(3,5-dimethylpiperazine-1-carbonyl)piperidin-1-yl)-3,3-di-o-tolylpropan-1-one] | 5850 | 3710
13 | Cc1ccccc1C(CC(=O)N1CCC(C(=O)N2CCNCC2)CC1)c1ccccc1C [Compound 17, 1-(4-(piperazine-1-carbonyl)piperidin-1-yl)-3,3-di-o-tolylpropan-1-one] | 3520 | 1880
14 | CC1CN(CC2CCN(C(=O)COC(c3ccccc3)c3ccccc3)CC2)CC(C)N1 (centres unmarked) [Compound 18, 2-(benzhydryloxy)-1-(4-((3,5-dimethylpiperazin-1-yl)methyl)piperidin-1-yl)ethanone] | 1860 | 1180
15 | CC1CN(CC2CCN(C(=O)C[S+]([O-])C(c3ccccc3)c3ccccc3)CC2)CC(C)N1 (centres unmarked) [Compound 19, 2-(benzhydrylsulfinyl)-1-(4-((3,5-dimethylpiperazin-1-yl)methyl)piperidin-1-yl)ethanone] | 3750 | 2400
16 | CC1CN(C(=O)C2CCN(C(=O)CNC(c3ccccc3)c3ccccc3)CC2)CC(C)N1 (centres unmarked) [Compound 20, 2-(benzhydrylamino)-1-(4-(3,5-dimethylpiperazine-1-carbonyl)piperidin-1-yl)ethanone] | 8720 | 3000

Row | Structure (SMILES) | IC50 [1] [nM] | IC50 [2] [nM]
17 | CC1CN(C(=O)C2CCN(C(=O)COC(c3ccccc3)c3ccccc3)CC2)CC(C)N1 (centres unmarked) [Compound 21, 2-(benzhydryloxy)-1-(4-(3,5-dimethylpiperazine-1-carbonyl)piperidin-1-yl)ethanone] | 1640 | 990
18 | CC1CN(CC2CCN(C(=O)CC(c3ccccc3)c3ccccc3)CC2)CC(C)N1 (centres unmarked) [Compound 23, 1-(4-((3,5-dimethylpiperazin-1-yl)methyl)piperidin-1-yl)-3,3-diphenylpropan-1-one] | > 4700 | > 3910
19 | CC1CN(C(=O)C2CCN(C(=O)CC(c3ccccc3)c3ccccc3)CC2)CC(C)N1 (centres unmarked) [Compound 24, 1-(4-(3,5-dimethylpiperazine-1-carbonyl)piperidin-1-yl)-3,3-diphenylpropan-1-one] | > 5460 | > 3570
20 | CC1CN(C(=O)C2CCN(C(=O)NC(c3ccccc3)c3ccccc3)CC2)CC(C)N1 (centres unmarked) [Compound 25, N-benzhydryl-4-(3,5-dimethylpiperazine-1-carbonyl)piperidine-1-carboxamide] | > 6490 | 9870
21 | CC1CN(C(=O)C2(c3ccccc3)CCN(C(=O)CC(c3ccccc3)c3ccccc3)CC2)CC(C)N1 (centres unmarked) [Compound 26, 1-(4-(3,5-dimethylpiperazine-1-carbonyl)-4-phenylpiperidin-1-yl)-3,3-diphenylpropan-1-one] | 1310 | 850
22 | Cc1ccccc1C(CC(=O)N1CCC(C(=O)N2CC(C)NC(C)C2)(c2ccccc2)CC1)c1ccccc1C (centres unmarked) [Compound 27, 1-(4-(3,5-dimethylpiperazine-1-carbonyl)-4-phenylpiperidin-1-yl)-3,3-di-o-tolylpropan-1-one] | 410 | 240
23 | CC1CN(C(=O)C2(c3ccccc3)CCN(C(=O)CNC(c3ccccc3)c3ccccc3)CC2)CC(C)N1 (centres unmarked) [Compound 28, 2-(benzhydrylamino)-1-(4-(3,5-dimethylpiperazine-1-carbonyl)-4-phenylpiperidin-1-yl)ethanone] | 2780 | 1610
24 | CC1CN(CC2(c3ccccc3)CCN(C(=O)CC(c3ccccc3)c3ccccc3)CC2)CC(C)N1 (centres unmarked) [Compound 30, 1-(4-((3,5-dimethylpiperazin-1-yl)methyl)-4-phenylpiperidin-1-yl)-3,3-diphenylpropan-1-one] | 490 | 320
25 | Cc1ccccc1C(CC(=O)N1CCC(CN2CC(C)NC(C)C2)(c2ccccc2)CC1)c1ccccc1C (centres unmarked) [Compound 31, 1-(4-((3,5-dimethylpiperazin-1-yl)methyl)-4-phenylpiperidin-1-yl)-3,3-di-o-tolylpropan-1-one] | 610 | 310
26 | CN1CCN(C(=O)C2(c3ccccc3)CCN(C(=O)CNC(c3ccccc3)c3ccccc3)CC2)CC1 [Compound 36, 2-(benzhydrylamino)-1-(4-(4-methylpiperazine-1-carbonyl)-4-phenylpiperidin-1-yl)ethanone] | > 21200 | > 12500
27 | Cc1ccccc1C(CC(=O)N1CCC(C(=O)N2CCN(C)CC2)(c2ccccc2)CC1)c1ccccc1C [Compound 37, 1-(4-(4-methylpiperazine-1-carbonyl)-4-phenylpiperidin-1-yl)-3,3-di-o-tolylpropan-1-one] | 380 | 290
28 | CN1CCN(C(=O)C2(c3ccccc3)CCN(C(=O)NC(c3ccccc3)c3ccccc3)CC2)CC1 [Compound 38, N-benzhydryl-4-(4-methylpiperazine-1-carbonyl)-4-phenylpiperidine-1-carboxamide] | > 2290 | 1420
29 | O=C(NC(c1ccccc1)c1ccccc1)N1CCC(CN2CCCCC2)CC1 [Compound 41, N-benzhydryl-4-(piperidin-1-ylmethyl)piperidine-1-carboxamide] | 5210 | 3490
30 | Cc1ccccc1C(CC(=O)N1CCC(CN2CCCCC2)CC1)c1ccccc1C [Compound 42, 1-(4-(piperidin-1-ylmethyl)piperidin-1-yl)-3,3-di-o-tolylpropan-1-one] | 6590 | 2440
31 | O=C(CNC(c1ccccc1)c1ccccc1)N1CCC(CN2CCCCC2)CC1 [Compound 43, 2-(benzhydrylamino)-1-(4-(piperidin-1-ylmethyl)piperidin-1-yl)ethanone] | 5320 | 5260
